US20250230193A1, “CYCLIC COMPOUND HAVING SELECTIVE KRAS INHIBITORY EFFECT ON HRAS AND NRAS” (CHUGAI SEIYAKU KABUSHIKI KAISHA, priority 2022, published 2025)

Tests used:
[1] = molecular target: GDP-bound NRAS wild-type protein (Homo sapiens, UniProt P01111); experiment: Binding to NRAS by surface plasmon resonance (SPR), Single Cycle Kinetics; conditions: KD ratio, GDP-bound NRAS wild-type vs GDP-bound KRAS wild-type, SPR
[2] = molecular target: GDP-bound HRAS wild-type protein (Homo sapiens, UniProt P01112); experiment: Binding to HRAS by surface plasmon resonance (SPR), Single Cycle Kinetics; conditions: KD ratio, GDP-bound HRAS wild-type vs GDP-bound KRAS wild-type, SPR
Sequence of GDP-bound HRAS wild-type protein (P01112 whole entry): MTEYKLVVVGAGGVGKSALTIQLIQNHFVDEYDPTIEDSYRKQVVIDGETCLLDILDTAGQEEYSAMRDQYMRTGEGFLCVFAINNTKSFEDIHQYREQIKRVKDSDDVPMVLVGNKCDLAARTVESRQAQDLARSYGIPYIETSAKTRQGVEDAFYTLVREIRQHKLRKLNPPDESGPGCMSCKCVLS

Sequence of GDP-bound NRAS wild-type protein (P01111 whole entry): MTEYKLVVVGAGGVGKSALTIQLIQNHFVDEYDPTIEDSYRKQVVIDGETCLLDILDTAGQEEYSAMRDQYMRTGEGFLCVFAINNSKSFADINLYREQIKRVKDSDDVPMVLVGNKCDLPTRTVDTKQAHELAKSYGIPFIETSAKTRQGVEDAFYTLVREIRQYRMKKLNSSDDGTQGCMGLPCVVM

Row | SMILES | NRAS/KRAS (ratio of KD value for NRAS to KD value for KRAS) [1] | HRAS/KRAS (ratio of KD value for HRAS to KD value for KRAS) [2]
1 | CCO[C@@H]1C[C@H]2C(=O)NC3(CCC3)C(=O)N(C)[C@@H](C3CCCC3)C(=O)N(C)[C@H](C(=O)N(C)CC)CC(=O)N(C)[C@H]3CCCC/C=C/c4ccc(cc4)C[C@@H](C(=O)N(C)CC(=O)N[C@@H](CCc4cc(F)c(C(F)(F)F)c(F)c4)C(=O)N2C1)N1CC/C=C\C[C@@H](C1=O)N(C)C(=O)CN(C)C(=O)[C@H]([C@@H](C)CC)NC3=O [PP1827, (1S,7S,11R,13S,19S,22S,26S,29S,35S,37Z,47E)-19-cyclopentyl-7-[2-[3,5-difluoro-4-(trifluoromethyl)phenyl]ethyl]-11-ethoxy-N-ethyl-N,3,18,21,25,31,34-heptamethyl-29-[(1S)-1-methylpropyl]-2,5,8,14,17,20,24,27,30,33,55-undecaoxo-spiro[3,6,9,15,18,21,25,28,31,34,41-undecazapentacyclo[24.15.11.2^43,46.1^35,41.0^9,13]pentapentaconta-37,43(54),44,46(53),47-pentaene-16,1′-cyclobutane]-22-carboxamide] | A (a compound having 10 or more and less than 20 is denoted as A) | A (a compound having 10 or more and less than 20 is denoted as A)
2 | CCO[C@@H]1C[C@H]2C(=O)NC3(CC(C)(C)C3)C(=O)N(C)[C@@H](C3CCCC3)C(=O)N(C)[C@H](C(=O)N(C)CC)CC(=O)N(C)[C@H]3CCCC/C=C/c4ccc(cc4)C[C@@H](C(=O)N(C)CC(=O)N[C@@H](CCc4cc(F)c(C(F)(F)F)c(F)c4)C(=O)N2C1)N1CC/C=C\C[C@@H](C1=O)N(C)C(=O)CN(C)C(=O)[C@H]([C@@H](C)CC)NC3=O [PP1829] | A (a compound having 10 or more and less than 20 is denoted as A) | B (a compound having 3 or more and less than 10 is denoted as B)
3 | CCO[C@@H]1C[C@H]2C(=O)NC3(CC(C)(C)C3)C(=O)N(C)[C@@H](C3CCCC3)C(=O)N(C)[C@H](C(=O)N(C)CC)CC(=O)N(C)[C@H]3CCCC/C=C/c4ccc(cc4)C[C@@H](C(=O)N(C)CC(=O)N[C@@H](CCc4ccc(C(F)(F)F)c(OC)c4)C(=O)N2C1)N1CC/C=C\C[C@@H](C1=O)N(C)C(=O)CN(C)C(=O)[C@H]([C@@H](C)CC)NC3=O [PP1830, (1S,7S,11R,13S,19S,22S,26S,29S,35S,37Z,47E)-19-cyclopentyl-11-ethoxy-N-ethyl-7-[2-[3-methoxy-4-(trifluoromethyl)phenyl]ethyl]-N,3,3′,3′,18,21,25,31,34-nonamethyl-29-[(1S)-1-methylpropyl]-2,5,8,14,17,20,24,27,30,33,55-undecaoxo-spiro[3,6,9,15,18,21,25,28,31,34,41-undecazapentacyclo[24.15.11.2^43,46.1^35,41.0^9,13]pentapentaconta-37,43(54),44,46(53),47-pentaene-16,1′-cyclobutane]-22-carboxamide] | A (a compound having 10 or more and less than 20 is denoted as A) | B (a compound having 3 or more and less than 10 is denoted as B)
4 | CCO[C@@H]1C[C@H]2C(=O)NC3(CC(C)(C)C3)C(=O)N(C)[C@@H](C3CCCC3)C(=O)N(C)[C@H](C(=O)N(C)C)CC(=O)N(C)[C@H]3CCCC/C=C/c4ccc(cc4)C[C@@H](C(=O)N(C)CC(=O)N[C@@H](CCc4cc(F)c(C(F)(F)F)c(F)c4)C(=O)N2C1)N1CC/C=C\C[C@@H](C1=O)N(C)C(=O)CN(C)C(=O)[C@H]([C@@H](C)CC)NC3=O [PP1831] | A (a compound having 10 or more and less than 20 is denoted as A) | A (a compound having 10 or more and less than 20 is denoted as A)
5 | CCO[C@@H]1C[C@H]2C(=O)NC3(CC(C)(C)C3)C(=O)N(C)[C@@H](C3CCCC3)C(=O)N(C)[C@H](C(=O)N(C)C)CC(=O)N(C)[C@H]3CCCC/C=C/c4ccc(cc4)C[C@@H](C(=O)N(C)CC(=O)N[C@@H](CCc4ccc(C(F)(F)F)c(OC)c4)C(=O)N2C1)N1CC/C=C\C[C@@H](C1=O)N(C)C(=O)CN(C)C(=O)[C@H]([C@@H](C)CC)NC3=O [PP1832] | B (a compound having 3 or more and less than 10 is denoted as B) | B (a compound having 3 or more and less than 10 is denoted as B)
6 | CCO[C@@H]1C[C@H]2C(=O)NC3(CCC3)C(=O)N(C)[C@@H](C3CCCC3)C(=O)N(C)[C@H](C(=O)N(C)CC)CC(=O)N(C)[C@H]3CCC/C=C/c4ccc(cc4)C[C@@H](C(=O)N(C)CC(=O)N[C@@H](CCc4ccc(C(F)(F)F)c(OC)c4)C(=O)N2C1)N1CC/C=C\C[C@@H](C1=O)N(C)C(=O)CN(C)C(=O)[C@H]([C@@H](C)CC)NC3=O [PP1834] | A (a compound having 10 or more and less than 20 is denoted as A) | B (a compound having 3 or more and less than 10 is denoted as B)
7 | CCO[C@@H]1C[C@H]2C(=O)NC3(CC(C)(C)C3)C(=O)N(C)[C@@H](C3CCCC3)C(=O)N(C)[C@H](C(=O)N(C)CC)CC(=O)N(C)[C@H]3CCC/C=C/c4ccc(cc4)C[C@@H](C(=O)N(C)CC(=O)N[C@@H](CCc4cc(F)c(C(F)(F)F)c(F)c4)C(=O)N2C1)N1CC/C=C\C[C@@H](C1=O)N(C)C(=O)CN(C)C(=O)[C@H]([C@@H](C)CC)NC3=O [PP1835] | A (a compound having 10 or more and less than 20 is denoted as A) | B (a compound having 3 or more and less than 10 is denoted as B)
8 | CC[C@H](C)[C@@H]1NC(=O)[C@H](CC)N(C)C(=O)C[C@@H](C(=O)N(C)C)N(C)C(=O)[C@H](C2CCCC2)N(C)C(=O)C2(CC(C)(C)C2)NC(=O)[C@@H]2C[C@H](C)CN2C(=O)[C@H](CCc2ccc(C(F)(F)F)c(OC)c2)NC(=O)CN(C)C(=O)[C@H](Cc2ccc(C)cc2)N2CC/C=C\C[C@@H](C2=O)N(C)C(=O)CN(C)C1=O [PP1836] | A (a compound having 10 or more and less than 20 is denoted as A) | B (a compound having 3 or more and less than 10 is denoted as B)
9 | CC[C@H](C)[C@@H]1NC(=O)[C@H](CC(F)F)N(C)C(=O)C[C@@H](C(=O)N(C)CC)N(C)C(=O)[C@H](C2CCCC2)N(C)C(=O)C2(CC(C)(C)C2)NC(=O)[C@@H]2C[C@@H](C)CN2C(=O)[C@H](CCc2ccc(C(F)(F)F)c(Cl)c2)NC(=O)CN(C)C(=O)[C@H](Cc2ccc(C)cc2)N2CC/C=C\C[C@@H](C2=O)N(C)C(=O)CN(C)C1=O [PP1837] | A (a compound having 10 or more and less than 20 is denoted as A) | A (a compound having 10 or more and less than 20 is denoted as A)
10 | CC[C@H](C)[C@@H]1NC(=O)[C@H](CC)N(C)C(=O)C[C@@H](C(=O)N(C)C)N(C)C(=O)[C@H](C2CCCC2)N(C)C(=O)C2(CC(C)(C)C2)NC(=O)[C@@H]2C[C@@H](C)CN2C(=O)[C@H](CCc2ccc(C(F)(F)F)c(OC)c2)NC(=O)CN(C)C(=O)[C@H](Cc2ccc(C)cc2)N2CC/C=C\C[C@@H](C2=O)N(C)C(=O)CN(C)C1=O [PP1838] | A (a compound having 10 or more and less than 20 is denoted as A) | A (a compound having 10 or more and less than 20 is denoted as A)
11 | CC[C@H](C)[C@@H]1NC(=O)[C@H](CC)N(C)C(=O)C[C@@H](C(=O)N(CC)CC)N(C)C(=O)[C@H](C2CCCC2)N(C)C(=O)C2(CC(C)(C)C2)NC(=O)[C@@H]2C[C@H](C)CN2C(=O)[C@H](CCc2ccc(C(F)(F)F)c(OC)c2)NC(=O)CN(C)C(=O)[C@H](Cc2ccc(C)cc2)N2CC/C=C\C[C@@H](C2=O)N(C)C(=O)CN(C)C1=O [PP1839] | A (a compound having 10 or more and less than 20 is denoted as A) | B (a compound having 3 or more and less than 10 is denoted as B)
12 | CCC[C@H]1C(=O)N[C@@H]([C@@H](C)CC)C(=O)N(C)CC(=O)N(C)[C@H]2C/C=C\CCN(C2=O)[C@@H](Cc2ccc(C)cc2)C(=O)N(C)CC(=O)N[C@@H](CCc2ccc(C(F)(F)F)c(OC)c2)C(=O)N2C[C@@H](C)C[C@H]2C(=O)NC2(CCC2)C(=O)N(C)[C@@H](C2CCCC2)C(=O)N(C)[C@H](C(=O)N(C)CC)CC(=O)N1C [PP1840] | A (a compound having 10 or more and less than 20 is denoted as A) | B (a compound having 3 or more and less than 10 is denoted as B)
13 | CC[C@H](C)[C@@H]1NC(=O)[C@H](CC)N(C)C(=O)C[C@@H](C(=O)N(CC)CC)N(C)C(=O)[C@H](C2CCCC2)N(C)C(=O)C2(CC(C)(C)C2)NC(=O)[C@@H]2C[C@@H](C)CN2C(=O)[C@H](CCc2ccc(C(F)(F)F)c(OC)c2)NC(=O)CN(C)C(=O)[C@H](Cc2ccc(C)cc2)N2CC/C=C\C[C@@H](C2=O)N(C)C(=O)CN(C)C1=O [PP1841] | AA (a compound having 20 or more is denoted as AA) | A (a compound having 10 or more and less than 20 is denoted as A)
14 | CC[C@H](C)[C@@H]1NC(=O)[C@H](CC)N(C)C(=O)C[C@@H](C(=O)N(C)C)N(C)C(=O)[C@H](C2CCCC2)N(C)C(=O)C2(CC(C)(C)C2)NC(=O)[C@@H]2C[C@H](C)CN2C(=O)[C@H](CCc2ccc(C(F)(F)F)c(Cl)c2)NC(=O)CN(C)C(=O)[C@H](Cc2ccc(C)cc2)N2CC/C=C\C[C@@H](C2=O)N(C)C(=O)CN(C)C1=O [PP1844] | A (a compound having 10 or more and less than 20 is denoted as A) | B (a compound having 3 or more and less than 10 is denoted as B)
